From publication PMC5447808 (Pulmonary pharmacology & therapeutics, 2017)

How the values were obtained:
[1] = target: T1, KAT8 (lysine acetyltransferase 8) (Homo sapiens, UniProt Q9H7Z6); assay: enzyme kinetics, Km app. for Ac-CoA without inhibitor; assay type: biochemical; settings: read-out: Ac-CoA / Km app.
T1 sequence (Q9H7Z6 2-458): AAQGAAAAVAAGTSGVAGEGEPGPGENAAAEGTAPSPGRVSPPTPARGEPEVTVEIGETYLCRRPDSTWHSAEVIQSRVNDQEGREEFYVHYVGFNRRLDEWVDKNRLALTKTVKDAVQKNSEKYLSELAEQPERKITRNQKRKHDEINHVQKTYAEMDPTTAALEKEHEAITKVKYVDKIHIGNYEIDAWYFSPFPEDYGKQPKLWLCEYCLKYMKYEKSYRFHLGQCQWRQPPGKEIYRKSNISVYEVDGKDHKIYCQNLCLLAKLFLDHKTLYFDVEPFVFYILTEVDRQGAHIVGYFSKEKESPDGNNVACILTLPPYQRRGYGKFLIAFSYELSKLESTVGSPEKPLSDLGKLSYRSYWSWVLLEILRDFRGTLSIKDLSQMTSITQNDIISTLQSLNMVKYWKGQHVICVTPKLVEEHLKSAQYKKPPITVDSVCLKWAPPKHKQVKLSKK

[2] = target: T1, KAT8 (lysine acetyltransferase 8); assay: enzyme kinetics of KAT8 HAT activity, fluorescent detection of CoASH; assay type: biochemical

Structure (SMILES)	Km [1] [µM]	Ki [2] [µM]
CC(=O)SCCNC(=O)CCNC(=O)[C@H](O)C(C)(C)COP(=O)(O)OP(=O)(O)OC[C@H]1O[C@@H](n2cnc3c(N)ncnc32)[C@H](O)[C@@H]1OP(=O)(O)O [Ac-CoA]	4.1 ± 1.1	–
CCCCCCCc1ccc(CCc2cccc(O)c2C(=O)O)cc1 [MG149]	–	39 ± 7.7
